What follows are compounds tested against T1, Neprilysin (Rattus norvegicus, UniProt P07861) (assay: In vitro inhibitory activity against neutral endopeptidase (NEP 24.11) from rat kidney cortex membranes).
T1 sequence (P07861 whole entry): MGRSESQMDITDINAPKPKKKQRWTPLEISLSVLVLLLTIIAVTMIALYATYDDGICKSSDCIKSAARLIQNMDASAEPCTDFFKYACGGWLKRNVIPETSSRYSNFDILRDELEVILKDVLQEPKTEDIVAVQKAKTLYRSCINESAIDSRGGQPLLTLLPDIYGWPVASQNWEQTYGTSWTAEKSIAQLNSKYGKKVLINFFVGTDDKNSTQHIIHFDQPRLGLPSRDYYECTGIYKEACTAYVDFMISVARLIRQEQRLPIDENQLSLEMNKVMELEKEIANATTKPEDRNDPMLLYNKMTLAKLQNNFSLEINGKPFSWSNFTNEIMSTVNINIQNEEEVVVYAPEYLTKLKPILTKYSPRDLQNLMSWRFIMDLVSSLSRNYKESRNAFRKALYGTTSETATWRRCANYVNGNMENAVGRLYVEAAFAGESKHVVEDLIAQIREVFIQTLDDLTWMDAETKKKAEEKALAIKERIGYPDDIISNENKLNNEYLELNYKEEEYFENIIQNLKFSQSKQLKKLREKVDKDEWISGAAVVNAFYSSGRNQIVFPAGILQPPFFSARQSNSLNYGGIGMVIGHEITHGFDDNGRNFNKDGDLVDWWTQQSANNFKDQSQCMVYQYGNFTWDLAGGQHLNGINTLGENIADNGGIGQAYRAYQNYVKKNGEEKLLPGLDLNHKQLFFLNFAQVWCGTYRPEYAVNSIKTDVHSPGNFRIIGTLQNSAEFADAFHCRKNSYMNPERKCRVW

SMILES	IC50
O=C(O)CCNC(=O)C(Cc1ccc(-c2ccccc2)cc1)SCP(=O)(O)O (stereo not given)	797 nM
O=C(O)CCNC(=O)C(Cc1ccc(-c2ccccc2)cc1)S(=O)(=O)CP(=O)(O)O (stereo not given)	> 10000 nM
O=C(O)CCNC(=O)C(CCP(=O)(O)O)Cc1ccc(-c2ccccc2)cc1 (stereo not given)	1000 nM

These reach a lower IC50. Values come first.

IC50	SMILES
9.5 nM	O=C(O)CCNC(=O)C(Cc1ccc(-c2ccccc2)cc1)OCP(=O)(O)O (stereo not given)
1.6 nM	O=C(O)CCNC(=O)[C@H](Cc1ccc(-c2ccccc2)cc1)NCP(=O)(O)O

Reference: ChEMBL document CHEMBL1127245, “The effect of heteroatom substitution on a series of phosphonate inhibitors of neutral endopeptidase 24.11” (Bioorg Med Chem Lett, 1994)
